Test results from ChEMBL document CHEMBL1681651, “A broad spectrum anticancer nucleoside with selective toxicity against human colon cells in vitro” (2011).

Tests used:
Assay type in all cases: functional
[1] = test system: OVCAR-5; assay: Growth inhibition of human OVCAR5 cells assessed as cell growth at 0.1 uM after 48 hrs by SRB assay; conditions: OVCAR-5, 48 h, read-out: Activity
[2] = test system: HCC 2998; assay: Growth inhibition of human HCC2998 cells after 48 hrs by […] growth inhibition assay; conditions: HCC 2998, 48 h
[3] = test system: NCI-H226; assay: Growth inhibition of human NCI-H226 cells assessed as cell growth at 10 uM after 48 hrs by SRB assay; conditions: NCI-H226, 48 h, read-out: Activity
[4] = test system: MCF7; assay: Growth inhibition of human MCF7 cells after 48 hrs by […] growth inhibition assay; conditions: MCF7, 48 h
[5] = test system: HOP-92; assay: Growth inhibition of human HOP92 cells assessed as cell growth at 1 mM after 48 hrs by SRB assay; conditions: HOP-92, 48 h, read-out: Activity
[6] = test system: LOX IMVI; assay: Growth inhibition of human LOXIMVI cells assessed as cell growth at 100 uM after 48 hrs by SRB assay; conditions: read-out: Activity
[7] = test system: NCI-H226; assay: Growth inhibition of human NCI-H226 cells assessed as cell growth at 1 mM after 48 hrs by SRB assay; conditions: NCI-H226, 48 h, read-out: Activity
[8] = test system: HT-29; assay: Growth inhibition of human HT-29 cells assessed as cell growth at 100 uM after 48 hrs by SRB assay; conditions: HT-29, 48 h, read-out: Activity
[9] = test system: SK-MEL-5; assay: Growth inhibition of human SK-MEL-5 cells assessed as cell growth at 1 mM after 48 hrs by SRB assay; conditions: SK-MEL-5, 48 h, read-out: Activity
[10] = test system: LOX IMVI; assay: Growth inhibition of human LOXIMVI cells after 48 hrs by […] growth inhibition assay
[11] = test system: OVCAR-8; assay: Growth inhibition of human OVCAR8 cells after 48 hrs by […] growth inhibition assay; conditions: OVCAR-8, 48 h
[12] = test system: OVCAR-3; assay: Growth inhibition of human OVCAR3 cells assessed as cell growth at 1 mM after 48 hrs by SRB assay; conditions: OVCAR-3, 48 h, read-out: Activity
[13] = test system: HCT-15; assay: Growth inhibition of human HCT15 cells assessed as cell growth at 1 mM after 48 hrs by SRB assay; conditions: HCT-15, 48 h, read-out: Activity
[14] = test system: ACHN; assay: Growth inhibition of human ACHN cells after 48 hrs by […] growth inhibition assay
[15] = test system: MDA-MB-435; assay: Growth inhibition of human MDA-MB-435 cells assessed as cell growth at 1 mM after 48 hrs by SRB assay; conditions: MDA-MB-435, 48 h, read-out: Activity
[16] = test system: KM12; assay: Growth inhibition of human KM12 cells assessed as cell growth at 0.1 uM after 48 hrs by SRB assay; conditions: KM12, 48 h, read-out: Activity
[17] = test system: SNB-19; assay: Growth inhibition of human SNB19 cells after 48 hrs by […] growth inhibition assay; conditions: SNB-19, 48 h
[18] = test system: UO-31; assay: Growth inhibition of human UO31 cells assessed as cell growth at 1 uM after 48 hrs by SRB assay; conditions: UO-31, 48 h, read-out: Activity
[19] = test system: SF-539; assay: Growth inhibition of human SF539 cells assessed as cell growth at 100 uM after 48 hrs by SRB assay; conditions: SF-539, 48 h, read-out: Activity
[20] = test system: A498; assay: Growth inhibition of human A498 cells assessed as cell growth at 100 uM after 48 hrs by SRB assay; conditions: A498, 48 h, read-out: Activity
[21] = test system: RXF 393; assay: Growth inhibition of human RXF393 cells assessed as cell growth at 100 uM after 48 hrs by SRB assay; conditions: RXF 393, 48 h, read-out: Activity
[22] = test system: SK-OV-3; assay: Growth inhibition of human SKOV3 cells after 48 hrs by […] growth inhibition assay; conditions: SK-OV-3, 48 h
[23] = test system: M14; assay: Growth inhibition of human M14 cells assessed as cell growth at 10 uM after 48 hrs by SRB assay; conditions: M14, 48 h, read-out: Activity
[24] = test system: OVCAR-8; assay: Growth inhibition of human OVCAR8 cells assessed as cell growth at 100 uM after 48 hrs by SRB assay; conditions: OVCAR-8, 48 h, read-out: Activity
[25] = test system: MDA-MB-231; assay: Growth inhibition of human MDA-MB-231 cells after 48 hrs by […] growth inhibition assay; conditions: MDA-MB-231, 48 h
[26] = test system: SK-MEL-2; assay: Growth inhibition of human SK-MEL-2 cells assessed as cell growth at 1 uM after 48 hrs by SRB assay; conditions: SK-MEL-2, 48 h, read-out: Activity
[27] = test system: A549; assay: Growth inhibition of human A549 cells after 48 hrs by […] growth inhibition assay; conditions: A549, 48 h
[28] = test system: SK-MEL-5; assay: Growth inhibition of human SK-MEL-5 cells assessed as cell growth at 0.1 uM after 48 hrs by SRB assay; conditions: SK-MEL-5, 48 h, read-out: Activity
[29] = test system: PC-3; assay: Growth inhibition of human PC3 cells assessed as cell growth at 10 uM after 48 hrs by SRB assay; conditions: PC-3, 48 h, read-out: Activity
[30] = test system: SR; assay: Growth inhibition of human SR cells assessed as cell growth at 10 uM after 48 hrs by SRB assay; conditions: read-out: Activity
[31] = read-out: LC50 (the source's name)
[32] = read-out: pLC50 (the source's name) (converted)

`CNC(=O)NC[C@H]1O[C@@H](n2cnc3c(NC(=O)Nc4ccccc4)ncnc32)[C@H](O[Si](C)(C)C(C)(C)C)[C@@H]1O[Si](C)(C)C(C)(C)C` showed a growth at 0.1 µM [1] of 96%, a GI50 ([2]; read-out: GI50) of 2020 nM and a CC50 [2, 31] of 6.99 µM. For the same compound, the TGI ([2]; read-out: TGI) was 3.75 µM, the GI50 ([2]; read-out: pGI50 (converted)) was 2000 nM and the CC50 [2, 32] was 6.92 µM. It also gave a TGI ([2]; read-out: pTGI (converted)) of 3.72 µM, a growth at 10 µM [3] of 105% and a GI50 ([4]; read-out: GI50) of 2690 nM. For the same compound, the CC50 [4, 31] was > 100 µM, the TGI ([4]; read-out: TGI) was 19.3 µM and the GI50 ([4]; read-out: pGI50 (converted)) was 2690 nM. For the same compound, the CC50 [4, 32] was > 100 µM, the TGI ([4]; read-out: pTGI (converted)) was 19.5 µM and the growth at 1000 µM [5] was -50%. The growth at 100 µM [6] was -89%, the growth at 1000 µM [7] was -48% and the growth at 100 µM [8] was -80%. The growth at 1000 µM [9] was -99%, the GI50 ([10]; read-out: GI50) was 1820 nM and the CC50 [10, 31] was 6.21 µM. The TGI ([10]; read-out: TGI) was 3.36 µM, the GI50 ([10]; read-out: pGI50 (converted)) was 1820 nM and the CC50 [10, 32] was 6.17 µM. The TGI ([10]; read-out: pTGI (converted)) was 3.39 µM, the GI50 ([11]; read-out: GI50) was 4.01 µM and the CC50 [11, 31] was > 100 µM. For the same compound, the TGI ([11]; read-out: TGI) was 40.1 µM, the GI50 ([11]; read-out: pGI50 (converted)) was 3.98 µM and the CC50 [11, 32] was > 100 µM. For the same compound, the TGI ([11]; read-out: pTGI (converted)) was 39.8 µM, the growth at 1000 µM [12] was -50% and the growth at 1000 µM [13] was 6%. For the same compound, the GI50 ([14]; read-out: GI50) was 3.83 µM, the CC50 [14, 31] was > 100 µM and the TGI ([14]; read-out: TGI) was > 100 µM. For the same compound, the GI50 ([14]; read-out: pGI50 (converted)) was 3.8 µM, the CC50 [14, 32] was > 100 µM and the TGI ([14]; read-out: pTGI) was > 100 µM. For the same compound, the growth at 1000 µM [15] was -10%, the growth at 0.1 µM [16] was 104% and the GI50 ([17]; read-out: GI50) was 4.57 µM. The CC50 [17, 31] was > 100 µM, the TGI ([17]; read-out: TGI) was > 100 µM and the GI50 ([17]; read-out: pGI50 (converted)) was 4.57 µM. For the same compound, the CC50 [17, 32] was > 100 µM, the TGI ([17]; read-out: pTGI) was > 100 µM and the growth at 1 µM [18] was 97%. For the same compound, the growth at 100 µM [19] was 7%, the growth at 100 µM [20] was -39% and the growth at 100 µM [21] was -73%. For the same compound, the GI50 ([22]; read-out: GI50) was 6.88 µM, the CC50 [22, 31] was > 100 µM and the TGI ([22]; read-out: TGI) was > 100 µM. The GI50 ([22]; read-out: pGI50 (converted)) was 6.92 µM, the CC50 [22, 32] was > 100 µM and the TGI ([22]; read-out: pTGI) was > 100 µM. The growth at 10 µM [23] was 105%, the growth at 100 µM [24] was 13% and the GI50 ([25]; read-out: GI50) was 2610 nM. The CC50 [25, 31] was 28.3 µM, the TGI ([25]; read-out: TGI) was 6.12 µM and the GI50 ([25]; read-out: pGI50 (converted)) was 2630 nM. It also gave a CC50 [25, 32] of 28.2 µM, a TGI ([25]; read-out: pTGI (converted)) of 6.17 µM and a growth at 1 µM [26] of 110%. The GI50 ([27]; read-out: GI50) was 2900 nM, the CC50 [27, 31] was > 100 µM and the TGI ([27]; read-out: TGI) was 12.8 µM. For the same compound, the GI50 ([27]; read-out: pGI50 (converted)) was 2880 nM, the CC50 [27, 32] was > 100 µM and the TGI ([27]; read-out: pTGI (converted)) was 12.9 µM. For the same compound, the growth at 0.1 µM [28] was 102% and the growth at 10 µM [29] was 83%.
For `CNC(=O)OC[C@H]1O[C@@H](n2cnc3c(NC(=O)Nc4ccccc4)ncnc32)[C@H](O[Si](C)(C)C(C)(C)C)[C@@H]1O[Si](C)(C)C(C)(C)C`, the growth at 10 µM [3] was 93.2%, the growth at 10 µM [30] was 77.9% and the growth at 10 µM [23] was 102%. It also gave a growth at 10 µM [29] of 58.9%.
